Values after ≈ are worked out from the molar mass of the structure shown.

As a reminder, the IC50 is the point on the concentration scale where inhibition reaches its midpoint. A high value points to weaker potency.

This assay relates to A2780. Briefly: Cytotoxicity against human A2780 cells by clonogenic assay. The format is functional, cell-based.
`C/C(=C\CO)CCCC(C)CC[C@H]1[C@@H](C)CCCC1(C)C` (stereo not given in full) [CASSIPOUROL] showed an IC50 of 2.4 µg/mL (≈ 8.15 µM).

In turn, `COc1cc(O)c2c(=O)c(OC)c(-c3cc(OC)c(OC)c(OC)c3)oc2c1` [COMBRETOL] returned a 50% inhibitory concentration (IC50) of 8.7 µg/mL (≈ 22.4 µM).

As for `C=C(CO)[C@@H]1CC[C@]2(C)CC[C@]3(C)[C@H](CC[C@@H]4[C@@]5(C)CCC(=O)C(C)(C)[C@@H]5CC[C@]43C)[C@@H]12`, half-maximal inhibition (IC50) was put at 16.4 µg/mL (≈ 37.2 µM).

`CC(=O)OC/C=C(\C)CCCC(C)CC[C@H]1[C@@H](C)CCCC1(C)C` (stereo not given in full) [CASSIPOURYL ACETATE] registered an IC50 of 2.8 µg/mL.

Take `C=C(CO)[C@@H]1CC[C@]2(C)CC[C@]3(C)[C@H](CC[C@@H]4[C@@]5(C)CC[C@H](O)C(C)(C)[C@@H]5CC[C@]43C)[C@@H]12`: half-maximal inhibition (IC50) required 12.2 µg/mL (≈ 27.6 µM).

Values taken from ChEMBL document CHEMBL1157260, “Cytotoxic diterpenes from Cassipourea madagascariensis from the Madagascar rainforest” (J Nat Prod, 2006).
